In US6274611A, “Methods and compositions for inhibition of viral replication” (The United States of America as represented by the …, priority 1999, dated 2001):
“Also recorded” adds a separate entry of the source.

Assays:
[1] = system: HIV-1; assay: HIV-1 activation in TNF-α-treated OM-10.1 cultures, culture supernatant reverse transcriptase activity; assay type: cell-based, HIV-1 in OM-10.1 cells; details: for HIV-1 inhibitory activity in the OM-10.1 induction system: OM-10.1 cells, TNF-α induction
Experimental: (§1) FIG. 2 is a graph showing the inhibition of HIV-1 expression and toxicity in OM-10.1 cells by DRB, and similarity to inhibition imposed by chrysin and PD 144795. Reverse transcriptase activity (--.ae butted.--) was measured (as taught in Butera et al, Mol. Med. vol. 1, pp. 758-767 (1995)) in culture supernatants 48 hr after HIV activation, and cell viability (--.tangle-solidup.--) was assessed at 24 hr by flow cytometric analysis of propidium iodide exclusion. Inset: A graph showing the inhibition of HIV-1 expression in OM-10.1 cells by chrysin- (--Δ--) and PD 144795 (--.star.--) treatment of HIV-1.
(§2) OM-10.1 and HL-60 cells as described in Example 1 were propagated in RPMI-1640 supplemented with 10% heat-inactivated fetal calf serum, 2 mM glutamine, and 1% Pen-Strep. Induction of HIV-1 using TNF-α (Butera, S. T., et al, J. Virol. Vol. 65, pp. 4645-4653 (1991)), and antiviral assays (Butera, S. T., et al MoL Med. Vol. 1, pp. 758-767 (1995), Critchfield, J. W., et al., AIDS Res. Hum. Retr. Vol. 12, pp. 39-46 (1996)), were performed as described. For binding studies, cultures were grown to a density of 106 /ml, washed twice with cold PBS, and the cell pellet either flash-frozen in dry ice/ethanol for storage at -70° C., or immediately lysed in 1 ml cold lysis buffer/10^7 cells. Lysis buffer consisted of 0.02 M HEPES (pH 7.4), 0.5% Triton X-100, 0.3 M NaCl, 20 mM NaF, 1 mM each of Na4 P2 O7, Na3 VO4, DTT, EGTA and EDTA, 1 μg/ml each of leupeptin, aprotinin, and pepstatin, 0.5 mM PMSF, and 50 nM okadaic acid. Lysates were incubated on ice for 15 min, centrifuged at 10,000×g for 15 minutes at 4° C., then the supernatants were either used immediately or stored -70° C. For binding reactions with the chrysin affinity resin, lysates (2 ml) were diluted 1:2 with ice-cold 0.02 M HEPES (pH 7.4), then competitor compounds (or 0.1% final DMSO as the control), as indicated, were added to a final concentration of 10 μM and the lysates incubated on ice for 30 min. Chrysin-Sepharose (0.2 ml) was then added and the reactions gently mixed for 1 hr at 4° C. After 3 washes with cold 0.02 M HEPES (pH 7.4), 0.15 M NaCl, 0.25% Triton X-100, bound proteins were eluted with 2 ml 0.02 M ethanolamine (pH 9.5), 0.1% SDS, 0.5 mM chrysin, 1.0% DMSO at 23° C. Samples were concentrated via centrifugation at 23° C. through a 10 kD cut-off membrane (Centricon), then analyzed by SDS-PAGE (8%), and silver stained.
HIV-1 activation experiments were conducted in the presence or absence of DRB. […] Furthermore, the effective dose range of DRB (1-10 μM) was nearly identical to that of the other compounds (FIG. 2, inset), and toxicity over the effective dose range for the other compounds was also negligible.

[2] = system: chrysin-binding proteins p44, p40, p29, p28 (subunits of CKII); assay: Chrysin affinity resin binding reaction with competitor compounds in OM-10.1 cell lysates (SDS-PAGE silver stain, anti-CKII immunoblot); design: species or system human; details: for effect of competitor on binding of proteins (p44, p40, p29, p28) to the chrysin-resin: competitor 10 μM added to lysate of TNF-α-induced OM-10.1 cells; for effect of competitor on binding of proteins (p44, p40, p29, p28) to the chrysin-resin / effect of competitor on binding of p28 to chrysin resin: silver staining; for effect of competitor on immunodetection of α, α' and β subunits of CKII bound to the chrysin resin / effect of competitor on binding of p28 to chrysin resin: competitor 10 μM; for effect of competitor on immunodetection of α, α' and β subunits of CKII bound to the chrysin resin: anti-CKII immunoblot
Experimental: The affinity resin was made by attachment of 4'-OH-chrysin chrysin (apigenin) to epoxy-activated Sepharose 6B, resulting in chrysin in an ether-linkage. The resin (2 g, dry) was washed with water then 0.1 N NaOH, added to 60 ml 0.01 M apigenin in 0.1 N NaOH (or 0.1 N NaOH only for a non-derivatized control resin), and incubated with gentle mixing for 24 hr at 37° C. The resin then underwent a series of washes (Ghenbot, et al., Prot. Expr. Purif. Vol. 3, pp. 470-478 (1992)) and the residual reactive groups capped with 0.1 M ethanolamine for 16 hr at 37° C. After washing with water, the resin was stored at 4° C. in 0.2% NaN3.
as §2
For Western analysis, proteins were transferred to PVDF and probed with a combination of two antibody reagents, one recognizing an epitope common to both the α and α' subunit of CKII (Upstate Biotechnology) and the other reacting with the β subunit of CKII (a gift from D. Litchfield, University of Western Ontario). Final detection was with enhanced chemiluminescence (Amersham).
To identify the targets of HIV-1 inhibitory flavonoids, Sepharose was derivatized with the flavonoid chrysin and interacted with lysates from OM-10.1 cells as described in Example I. Cultures induced to maximally express HIV-1 (24 hr treatment with TNF-α) were utilized to ensure the presence of both cellular and viral proteins.
To further confirm that the chrysin-binding proteins were indeed the subunits of CKII, resin-binding reactions were performed using a selective inhibitor of CKII activity, 5,6 dichloro-1-β-D-ribofuranosylbenzimidazole (DRB), and the results analyzed by silver staining and anti-CKII immunoblotting. […] Since the apparent mass of the β chain of CKII is increased by phosphorylation (Luscher, B. L., et al. Eur. J. Biochem. Vol. 220, pp. 521-526 (1994)), it was possible that p28 represented an unphosphorylated form of p29. […] Furthermore, the major p28 band observed by silver stain was absent by immunoblot analysis. This absence was not due to an inability of the CKIIβ antibody to recognize dephosphorylated CKIIβ, which had lower apparent mass following alkaline phosphatase treatment. […]

[3] = system: OM-10.1 cells; assay: OM-10.1 culture viability (flow cytometric propidium iodide exclusion); assay type: cell-based, human; details: OM-10.1 cultures; viability assessed at 24 hr
Experimental: as §1

[4] = system: NF-κB; assay: NF-κB activation and I-κB degradation upon cellular activation; assay type: cell-based
[5] = system: casein kinase I; details: Shugar 1994; cited from earlier work
[6] = biological target: human recombinant CKII (ααββ form) (Homo sapiens, UniProt P68400); assay: Human recombinant CKII enzyme kinetics; assay type: biochemical; details: for inhibition of CKII enzymatic activity: 37° C.
Chain of human recombinant CKII (ααββ form) (P68400 whole entry): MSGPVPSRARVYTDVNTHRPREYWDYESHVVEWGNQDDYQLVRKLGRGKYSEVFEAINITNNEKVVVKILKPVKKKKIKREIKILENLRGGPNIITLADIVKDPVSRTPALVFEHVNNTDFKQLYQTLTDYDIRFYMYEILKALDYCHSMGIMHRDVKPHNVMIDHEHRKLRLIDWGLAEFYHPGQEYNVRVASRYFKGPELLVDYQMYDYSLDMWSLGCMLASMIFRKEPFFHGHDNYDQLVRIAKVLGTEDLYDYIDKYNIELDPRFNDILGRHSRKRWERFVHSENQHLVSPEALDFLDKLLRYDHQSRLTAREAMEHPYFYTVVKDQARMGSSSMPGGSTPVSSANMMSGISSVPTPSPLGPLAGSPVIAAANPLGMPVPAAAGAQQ
Chain of human recombinant CKII (ααββ form) (P67870 whole entry partner): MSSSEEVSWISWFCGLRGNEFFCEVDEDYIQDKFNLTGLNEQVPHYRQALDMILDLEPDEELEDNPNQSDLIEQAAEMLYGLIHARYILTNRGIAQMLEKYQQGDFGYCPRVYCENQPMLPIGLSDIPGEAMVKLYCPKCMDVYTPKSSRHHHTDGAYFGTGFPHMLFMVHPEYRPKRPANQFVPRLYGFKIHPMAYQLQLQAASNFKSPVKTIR
Experimental: Reactions were carried out at 37° C. in 0.025 M HEPES (pH 7.4), 0.15 M KCl, 0.01 M MgCl2, 1.4 mM β-mercaptoethanol, 1 mM DTT, 1 mM EGTA, 10% glycerol, 0.32 mM synthetic CKII peptide, ([…]), 1 μU/μl CKII, and the indicated concentrations of ATP and test agents. Unincorporated [γ-^32 P] ATP was removed by spotting reactions onto P81 phosphocellulose paper (Whatman) and washing in 0.75 mM phosphoric acid then acetone.

[7] = system: HIV-1; details: latently and chronically infected cells; Butera et al. 1995, Critchfield et al. 1996; cited from earlier work
[8] = system: HIV-1; assay: Down modulation of cell surface CD4 in TNF-α-induced OM-10.1 cultures; assay type: cell-based, HIV-1 in OM-10.1 cells
Description: Critical tools for studying the efferent phase of the HIV life cycle are the latently infected cell lines such as UI, ACH2, J1, and OM-10.1. […] HIV activation can also be achieved by phorbol esters such as PMA (phorbol -12-myristate-13-acetate).
The CD4 response is a direct consequence of viral activation and allows a rapid, convenient and highly reproducible assessment of treatments that modify TNF-α expression of HIV from its latent state. In addition, the down modulation of CD4 is not affected by inhibitors of virion assembly or release such as protease inhibitors. Thus, by measuring cell surface CD4 and a virion constituent such as reverse transcriptase (RT), it is possible to discriminate between inhibition of HIV assembly, release and earlier events.

[9] = system: HIV; details: acutely infected H9 cells (baicalin also CEM-ss cells and PBMCs); cited from earlier work

NCCNS(=O)(=O)c1ccc(Cl)c2ccncc12 [CKI-7]
HIV-1 inhibitory activity in the OM-10.1 induction system [1]: without HIV-1 inhibitory activity

OC[C@H]1O[C@@H](n2cnc3cc(Cl)c(Cl)cc32)[C@H](O)[C@@H]1O [DRB, 5,6-dichloro-1-β-D-ribofuranosylbenzimidazole]
effect of competitor on binding of proteins (p44, p40, p29, p28) to the chrysin-resin [2]: prevented the binding of the same proteins that were competed by free chrysin
effect of competitor on immunodetection of α, α' and β subunits of CKII bound to the chrysin resin [2]: eliminated their immunodetection
effect of competitor on binding of p28 to chrysin resin [2]: the only exception being p28
EC50 ([1]; Human immunodeficiency virus 1, TNF-α-treated OM-10.1 cultures, RT measured 48 hr after HIV activation, read-out: ED50, reduction in culture supernatant reverse transcriptase activity): ~2000 nM
HIV-1 inhibitory activity in the OM-10.1 induction system [1]: markedly inhibited; also recorded: potently inhibits
effective dose range for inhibition of HIV-1 expression ([1]; TNF-α-treated OM-10.1 cultures): 1 to 10 µM
culture viability / toxicity over the effective dose range [3]: did not decline
NF-κB activation and function ([4]; TNF-α-treated OM-10.1 cultures): appeared normal
degradation of I-κB upon cellular activation ([4]; in the presence of compound): Normal degradation
inhibitory activity against casein kinase I [5]: appreciable inhibitory activity

COc1ccc2c(c1)c(OC(C)C)c(C(N)=O)[s+]2[O-] (stereo not shown) [PD 144795]
effect of competitor on binding of proteins (p44, p40, p29, p28) to the chrysin-resin [2]: pattern of binding inhibition identical to that of DRB
effect of competitor on binding of p28 to chrysin resin [2]: did not alter
inhibition of CKII enzymatic activity [6]: inhibition of CKII enzyme activity
HIV-1 inhibitory activity in the OM-10.1 induction system [1]: HIV-inhibitory
inhibition of HIV transcription [7]: inhibiting HIV transcription at micromolar concentrations

O=C1CN=C(c2ccc[nH]2)c2cc(Cl)ccc2N1 [Ro 5-3335]
inhibition of RT ([1]; TNF-α-induced OM-10.1 cultures): inhibits both of these measures to a similar extent
inhibition of down modulation of CD4 [8]: inhibits both of these measures to a similar extent

O=c1cc(-c2ccc(O)cc2)oc2cc(O)cc(O)c12 [apigenin]
effect of competitor on binding of proteins (p44, p40, p29, p28) to the chrysin-resin [2]: specifically inhibited in their binding to the resin
HIV-1 inhibitory activity in the OM-10.1 induction system [1]: HIV-inhibitory

O=C(O)[C@H]1O[C@@H](Oc2cc3oc(-c4ccccc4)cc(=O)c3c(O)c2O)[C@H](O)[C@@H](O)[C@@H]1O [baicalin]
inhibition of HIV replication in acutely infected cells [9]: inhibits HIV replication

Oc1cc(O)c2c(c1)OC(c1ccc(O)c(O)c1)C(O)C2 (stereo not shown) [catechin]
effect of competitor on binding of proteins (p44, p40, p29, p28) to the chrysin-resin [2]: no effect
HIV-1 inhibitory activity in the OM-10.1 induction system [1]: lacking HIV-1 inhibitory activity

O=c1cc(-c2ccccc2)oc2cc(O)cc(O)c12 [chrysin]
effect of competitor on binding of proteins (p44, p40, p29, p28) to the chrysin-resin [2]: specifically inhibited in their binding to the resin
effect of competitor on immunodetection of α, α' and β subunits of CKII bound to the chrysin resin [2]: eliminated their immunodetection
kinetics of CKII inhibition with respect to ATP [6]: competitive kinetics with respect to ATP
inhibition of CKII enzymatic activity [6]: inhibit human recombinant CKII enzymatic activity
inhibition of HIV transcription [7]: potent inhibitors
inhibition of HIV replication in acutely infected cells [9]: significant inhibitory activity

COc1ccc([C@@H]2CC(=O)c3c(O)cc(O[C@@H]4O[C@H](CO[C@@H]5O[C@@H](C)[C@H](O)[C@@H](O)[C@H]5O)[C@@H](O)[C@H](O)[C@H]4O)cc3O2)cc1O [hesperidin]
effect of competitor on binding of proteins (p44, p40, p29, p28) to the chrysin-resin [2]: no effect
HIV-1 inhibitory activity in the OM-10.1 induction system [1]: lacking HIV-1 inhibitory activity
